Laboratory results published in US5492906A, “Derivatives of thieno-triazolo-diazepine and therapeutic compositions containing them” (Societe de Conseils de Recherches et d'Applications …, priority 1989, dated 1996).

Key:
[1] = tested on: platelet agregation induced by PAF; assay: Inhibition of platelet agregation induced by PAF; format: cell-based, New Zealand rabbits; details: Oryctolagus cuniculus, New Zealand rabbit platelets, agregometer at 57° C., Table I
Experimental: 1) Inhibition of platelet agregation induced by PAF
This experimentation was conducted according to the method of R. KINLOUGH. RATHBONE, J. P. CAZENAVE, M. PACKHAM and F. MUSTARD, Lab. Invest. 48, 98, 1980. In this test, New Zealand rabbits were used (male New Zealand rabbits of an average weight of 5 kg).
The determinations are made on a chrono-log Coultronics agregometer, at […] coupled with a graphic recorder; the results of these determinations (in molecular concentration) are reported on the table I on the central column.

benzodiazepine receptors = assay: Inhibition of the binding to benzodiazepine receptors (rat brains); details: rat brains incubated 1 h 30 at 4° C.; 3H-RO-15-4788 and 3H-RO-5-4864 as tracers; Table I; read-out: BDZ receptors (inhibition of the binding to benzodiazepine receptors)
From the text: 2) Inhibition of the binding to benzodiazepine receptors
The interest of the previous experimentation depends on the results obtained in this experimentation: as a compound of the invention has a benzodiazepine like structure, it is important to check whether the specific benzodiazepine activity would not appear at the dose where platelet agregation was inhibited.
Therefore, this experimentation has been conducted according to the method of MOHLER H. and RICHARD J. G. Agonist and antagonist benzodiazepine receptor intereaction in vitro, Nature, vol. 294, 763°-765, 1981.
This experimentation was conducted on rat brains incubated 1 h 30 at 4° C. using ^3 H-RO-15-4788 and ^3 H-RO-5-4864 (NEN) as tracers and […] and RO-5-4864 as reference antagonists.
The results in molecular concentration are reported in the table I, on the right hand column.

| Structure (SMILES) | IC50 [1] | IC50 (benzodiazepine receptors) |
| --- | --- | --- |
| Cc1nnc2n1-c1sc3c(c1C(c1ccccc1Cl)=NC2)CCN(C(=O)NC(C)C)C3 [Example 2, 6-(2-chlorophenyl)-9-isopropylcarbamoyl-7,8,9,10-tetra-hydro-1-methyl4H-pyrido[4',3':4,5]thieno[3,2-f]1,2,4-triazolo [4,3-a] 1,4-diazepine] | 23.5 nM | 66000 nM |
| Cc1nnc2n1-c1sc3c(c1C(c1ccccc1Cl)=NC2)CCN(C(=S)NC(C)(C)C)C3 [Example 4, 6-(2-chlorophenyl)-9-tertbutylthiocarbamoyl-7,8,9,10-tetrahydro-1-methyl4H-pyrido[4',3':4,5]theno [3,2-f]1,2,4-triazolo[4,3-a]1,4-diazepine] | 8.82 nM | 135 nM |
| COc1ccc(NC(=O)N2CCc3c(sc4c3C(c3ccccc3Cl)=NCc3nnc(C)n3-4)C2)cc1 [Example 6, 6-(2-chlorophenyl)-9-(4-methoxy)phenylcarbamoyl-7,8,9,10-tetrahydro-1-methyl 4H-pyrido[4',3':4,5]thieno[3,2-f]1,2,4-triazolo[4,3-a]1,4-diazepine] | 127 nM | 77000 nM |
| COc1cc(NC(=S)N2CCc3c(sc4c3C(c3ccccc3Cl)=NCc3nnc(C)n3-4)C2)cc(OC)c1OC [Example 9, 6-(2-chlorophenyl)-9-(3,4,5-trimethoxy)phenylthiocarbamoyl-7,8,9,10-tetrahydro-1-methyl 4H-pyrido[4',3':4,5]thieno [3,2-f]1,2,4-triazolo[4,3-a]1,4-diazepine] | 38.7 nM | 4500 nM |
| Cc1nnc2n1-c1sc3c(c1C(c1ccccc1Cl)=NC2)CCN(C(=S)Nc1ccc(C(C)(C)C)cc1)C3 [Example 11, 6-(2-chlorophenyl)-9-(4-tertbutyl)phenylthiocarbamoyl-4H-pyrido[4',3':4,5]thieno [3,2-f]1,2,4-triazolo[4,3-a]1,4-diazepine] | 9.44 nM | 1200 nM |
| Cc1nnc2n1-c1sc3c(c1C(c1ccccc1Cl)=NC2)CCN(C(=S)Nc1ccccc1C(F)(F)F)C3 [Example 12, 6-(2-chlorophenyl)-9-(2-trifluoromethyl)phenylthiocarbamoyl-7,8,9,10-tetrahydro-1-methyl 4H-pyrido[4',3':4,5]thieno[3,2-f]1,2,4-triazolo[4,3-a]1,4-diazepine] | 171 nM | 3500 nM |
| Cc1nnc2n1-c1sc3c(c1C(c1ccccc1Cl)=NC2)CCN(C(=S)Nc1cccc(C(F)(F)F)c1)C3 [Example 13, 6-(2-chlorophenyl)-9-(3-trifluoromethyl)phenylthiocarbamoyl-7,8,9,10-tetrahydro-1-methyl 4H-pyrido[4',3':4,5]thieno[3,2-f]1,2,4-triazolo[4,3-a]1,4-diazepine] | 171 nM | 6250 nM |
| Cc1nnc2n1-c1sc3c(c1C(c1ccccc1Cl)=NC2)CCN(C(=S)Nc1ccc(C(F)(F)F)cc1)C3 [Example 15, 6-(2-chlorophenyl)-9-(4-trifluoromethyl)phenylthiocarbamoyl-7,8,9,10-tetrahydro-1-methyl 4H-pyrido[4',3':4,5]thieno[3,2-f]1,2,4-triazolo[4,3-a]1,4-diazepine] | 220 nM | 1250 nM |
| Cc1nnc2n1-c1sc3c(c1C(c1ccccc1Cl)=NC2)CCN(C(=S)Nc1ccc(F)cc1)C3 [Example 16, 6-(2-chlorophenyl)-9-(4-fluoro)phenylthiocarbamoyl-7,8,9,10-tetrahydro-1-methyl 4H-pyrido[4',3':4,5]thieno[3,2-f]1,2,4-triazolo[4,3-a]1,4-diazepine] | 64 nM | 700 nM |
| Cc1nnc2n1-c1sc3c(c1C(c1ccccc1Cl)=NC2)CCN(C(=S)NC(C)Cc1ccccc1)C3 (stereo not drawn) [Example 19, 6-(2-chlorophenyl)-9-(α-methyl)phenethylthiocarbamoyl-7,8,9,10-tetrahydro-1-methyl 4H-pyrido[4',3':4,5]thieno[3,2-f]1,2,4-triazolo[4,3-a]1,4-diazepine] | 42.5 nM | 360 nM |
| Cc1nnc2n1-c1sc3c(c1C(c1ccccc1Cl)=NC2)CCN(C(=S)NCC(C)c1ccccc1)C3 (stereo not drawn) [Example 20, 6-(2-chlorophenyl)-9-(β-methyl)phenethylthiocarbamoyl-7,8,9,10-tetrahydro-1-methyl 4H-pyrido[4',3':4,5]thieno[3,2-f]1,2,4-triazolo[4,3-a]1,4-diazepine] | 6.17 nM | 720 nM |
| Cc1nnc2n1-c1sc3c(c1C(c1ccccc1Cl)=NC2)CCN(C(=S)Nc1ccc(S(C)(=O)=O)cc1)C3 [Example 21, 6-(2-chlorophenyl)-9-(4-methylsulfonyl)phenylthiocarbamoyl-7,8,9,10-tetrahydro-1-methyl 4H-pyrido[4',3':4,5]thieno[3,2-f]1,2,4-triazolo[4,3-a]1,4-diazepine] | 24 nM | 1100 nM |
| Cc1nnc2n1-c1sc3c(c1C(c1ccccc1Cl)=NC2)CCN(C(=O)NCc1ccccc1)C3 [Example 23, 6-(2-chlorophenyl)-9-benzylcarbamoyl-7,8,9,10-tetrahydro-1-methyl-4H-pyrido[4',3':4,5]thieno[3,2-f]1,2,4-triazolo[4,3-a]1,4-diazepine] | 66.8 nM | 1600 nM |
| Cc1nnc2n1-c1sc3c(c1C(c1ccccc1Cl)=NC2)CCN(C(=S)Nc1cnc2ccccc2c1)C3 [Example 25, 6-(2-chlorophenyl)-9-(3-quinolyl)thiocarbamoyl-7,8,9,10-tetrahydro-1-methyl-4H-pyrido[4',3':4,5]thieno[3,2-f]1,2,4-triazolo[4,3-a]1,4-diazepine] | 182 nM | 350 nM |
| Cc1nnc2n1-c1sc3c(c1C(c1ccccc1Cl)=NC2)CCN(C(=S)NC1CCCCC1)C3 [Example 26, 6-(2-chlorophenyl)-9-cyclohexylthiocarbamoyl-7,8,9,10-tetrahydro-1-methyl-4H-pyrido[4',3':4,5]thieno[3,2-f]1,2,4-triazolo[4,3-a]1,4-diazepine] | 53.3 nM | 4100 nM |
| Cc1nnc2n1-c1sc3c(c1C(c1ccccc1Cl)=NC2)CCN(C(=O)NC1CCCCC1)C3 [Example 27, 6-(2-chlorophenyl)-9-cyclohexylcarbamoyl-7,8,9,10-tetrahydro-1-methyl-4H-pyrido[4', 3':4,5]thieno[3,2-f]1,2,4-triazolo[4,3-a]1,4-diazepine] | 45.2 nM | 2000 nM |
| C=CCNC(=S)N1CCc2c(sc3c2C(c2ccccc2Cl)=NCc2nnc(C)n2-3)C1 [Example 28, 6-(2-chlorophenyl)-9-allylthiocarbamoyl-7,8,9,10-tetrahydro-1-methyl-4H-pyrido[4',3':4,5]thieno[3,2-f]1,2,4-triazolo[4,3-a]1,4-diazepine] | 9.05 nM | 140 nM |
| Cc1nnc2n1-c1sc3c(c1C(c1ccccc1Cl)=NC2)CCN(C(=O)Nc1ccc(F)cc1F)C3 [Example 29, 6-(2-chlorophenyl)-9-(2,4-difluoro)phenylcarbamoyl-7,8,9,10-tetrahydro-1-methyl-4H-pyrido [4',3':4,5]thieno[3,2-f]1,2,4-triazolo[4,3-a]1,4-diazepine] | 58.6 nM | 220 nM |
| Cc1nnc2n1-c1sc3c(c1C(c1ccccc1Cl)=NC2)CCN(C(=S)NS(=O)(=O)c1ccco1)C3 [Example 31, 6-(2-chlorophenyl)-9-(2-furylsulfonyl)thiocarbamoyl-7,8,9,10-tetrahydro-1-methyl-4H-pyrido[4',3':4,5]thieno[3,2-f]1,2,4-triazolo[4,3-a]1,4-diazepine] | 8.15 nM | 615 nM |
| Cc1nnc2n1-c1sc3c(c1C(c1ccccc1Cl)=NC2)CCN(C(=O)NS(=O)(=O)c1cccs1)C3 [Example 32, 6-(2-chlorophenyl)-9-(2-thienylsulfonyl)carbamoyl-7,8,9,10-tetrahydro-1-methyl-4H-pyrido[4',5':4,5]thieno[3,2-f]1,2,4-triazolo[4,3-a]1,4-diazepine] | 66.6 nM | 4330 nM |
| Cc1nnc2n1-c1sc3c(c1C(c1ccccc1Cl)=NC2)CCN(C(=O)NS(=O)(=O)c1cccnc1)C3 [Example 34, 6-(2-chlorophenyl)-9-(3-pyridylsulfonyl)carbamoyl-7,8,9,10-tetrahydro-1-methyl-4H-pyrido[4',3':4,5]thieno[3,2-f]1,2,4-triazolo[4,3-a]1,4-diazepine] | 100 nM | 40000 nM |
| Cc1nnc2n1-c1sc3c(c1C(c1ccccc1Cl)=NC2)CCN(C(=S)NS(=O)(=O)c1ccnc2ccccc12)C3 [Example 35, 6-(2-chlorophenyl)-9-(4-quinolylsulfonyl)thiocarbamoyl-7,8,9,10-tetrahydro-1-methyl-4H-pyrido[4',3':4,5]thieno [3,2-f]1,2,4-triazolo[4,3-a]1,4-diazepine] | 34 nM | 2200 nM |
| Cc1nnc2n1-c1sc3c(c1C(c1ccccc1Cl)=NC2)CCN(C(=O)NS(=O)(=O)N1CCOCC1)C3 [Example 36, 6-(2-chlorophenyl)-9-(4-morpholinylsulfonyl)carbamoyl-7,8,9,10-tetrahydro-1-methyl-4H-pyrido[4',3':4,5]thieno[3,2-f]1,2,4-triazolo[4,3-a]1,4-diazepine] | 6.1 nM | 7250 nM |
